Experiments:
DU-145 [1] = system: DU-145
M14 = assay: NCI-60 SRB screen; conditions: M14, 48 h
MOLT-4 = assay: cells; conditions: Homo sapiens, MOLT-4, 48 h
CNS cancer = CNS cancer subpanel
DU-145 [2] = assay: cells; conditions: Homo sapiens, DU-145, 48 h
OVCAR-4 [3] = conditions: OVCAR-4, 48 h
[4] = system: panel of 60 cancer cell lines; assay: cells; conditions: Homo sapiens, read-out: MG_MID GI50
HCT-116 [5] = assay: cells; conditions: Homo sapiens, HCT-116, 48 h
KM12 = assay: NCI-60 SRB screen; conditions: KM12, 48 h
HCT-15 = assay: NCI-60 SRB screen; conditions: HCT-15, 48 h
MDA-MB-231 = assay: [3H]-thymidine incorporation assay; assay type: cell-based; conditions: Homo sapiens; MDA-MB-231, 24 h of treatment
Experimental: (§1) Another method of assessing the cytotoxic effects of tested compounds, [^3H]-thymidine incorporation assay, was applied. This method provided the capability to analyze the antiproliferative activity of novel structures on MCF-7 and MDA-MB-231 through their ability to incorporate thymidine into the cells. The acquired results further confirmed the potent activity of the 14b compound as the most prominent structure among the novel compounds (Table 2). The test was carried out in triplicate at concentrations of 5, 15, and 30 μM for the MDA-MB-231 cell line and 1, 5, and 10 μM for the MCF-7 cell line.
(§2) Following the selection of cell lines for further study, the effects of all compounds on cell proliferation were evaluated on MCF-7 and MDA-MB-231 cell lines. Cells were seeded in 24-well plates and cultured as described above. Cells were treated with the compounds at concentrations 1, 5, and 10 μM, and 5, 15, and 30 μM for MCF-7 and MDA-MB-231 cell lines, respectively, for 24 h. Subsequently, 0.5 μCi [^3H]-thymidine was added for 4 h at 37 °C. Then, plates with cells were placed on the ice, the liquid was aspirated, and cells were washed twice with 1mL of 0.05 M Tris-HCl buffer comprising 0.11 M NaCl and precipitated by adding 1 mL per well of 5% trichloroacetic. After precipitation, the cells were dissolved with 1 mL of 0.1 M NaOH with 1% SDS (Sigma-Aldrich, St. Louis, MO, USA) at room temperature (RT). The cell lysates were transferred into scintillation vials containing 2 mL of scintillation fluid (Ultima Gold™ XR, PerkinElmer, MA, USA), and cell-associated radioactivity was measured using a Scintillation Counter 1900 TR, TRI-CARB (Packard, Perkin Elmer, Inc., San Jose, CA, USA). The [^3H]-thymidine uptake was expressed as a percentage of the control value.

MCF-7 = assay: [3H]-thymidine incorporation assay; assay type: cell-based; conditions: Homo sapiens, MCF7; MCF-7, 24 h of treatment
Experimental: as §1, §2

HCT-116 [6] = conditions: HCT-116, 48 h
IGROV1 = assay: NCI-60 SRB screen
EKVX = assay: NCI-60 SRB screen; conditions: 48 h
Prostate Cancer = assay: cells; conditions: Homo sapiens, read-out: MG_MID GI50
OVCAR-4 [7] = assay: cells; conditions: Homo sapiens, OVCAR-4, 48 h
HOP-62 = assay: NCI-60 SRB screen; conditions: HOP-62, 48 h
SNB-75 = assay: NCI-60 SRB screen; conditions: SNB-75, 48 h
Breast cancer = assay: cells; conditions: Homo sapiens
PC-3 = conditions: PC-3, 48 h
TK-10 = assay: cells; conditions: Homo sapiens, TK-10, 48 h
CCRF-CEM = conditions: 48 h
OVCAR-8 = assay: cells; conditions: Homo sapiens, OVCAR-8, 48 h
SK-MEL-2 = assay: NCI-60 SRB screen; conditions: SK-MEL-2, 48 h
SNB-19 = assay: NCI-60 SRB screen

With CC(C)C(C(=O)O)N1C(=O)/C(=C/C=C/c2ccc([N+](=O)[O-])o2)SC1=S (stereo not shown) [5b, 3-Methyl-2-((Z)-5-((E)-3-(5-nitrofuran-2-yl)allylidene)-4-oxo-2-thioxothiazolidin-3-yl)butanoic acid] the “growth GP” value (SF-539; SF-539, 10 μM, 48 h) was -98.47%, the TGI (SF-539; SF-539, 48 h) was 2.91 µM and the “growth GP” value (DU-145 [1]; DU-145, 10 μM, 48 h) was -98.94%. The TGI (DU-145 [1]; DU-145, 48 h) was 2.82 µM, the GI50 (M14; Homo sapiens) was 1.6 µM and the CC50 (M14; Homo sapiens, read-out: LC50, M14, 48 h) was 6.44 µM. For the same compound, the TGI (M14) was 3.21 µM, the GI50 (MOLT-4) was 2.34 µM and the CC50 (MOLT-4; read-out: LC50, MOLT-4, 48 h) was greater than 100 µM. For the same compound, the “MG_MID TGI” value (CNS cancer) was 2.79 µM, the GI50 (DU-145 [2]) was 1.43 µM and the CC50 (DU-145 [2]; read-out: LC50, DU-145, 48 h) was 5.56 µM. The TGI (OVCAR-4 [3]) was 6.72 µM, the GI50 [4] was 1.4 µM and the GI50 (HCT-116 [5]) was 0.32 µM. The GI50 (KM12; Homo sapiens) was 1.17 µM, the TGI (KM12) was 2.57 µM and the TGI (HCT-15) was 2.18 µM. For the same compound, the GI50 (HCT-15; Homo sapiens) was 0.73 µM, the CC50 (HCT-15; Homo sapiens, read-out: LC50, HCT-15, 48 h) was 5.32 µM and the IC50 (MDA-MB-231) was 6.01 µM. It also gave an IC50 (MCF-7) of 1.93 µM, a TGI (HCT-116 [6]) of 1.13 µM and a GI50 (IGROV1; Homo sapiens, IGROV-1, 48 h, IGROV1, 48 h) of 1.78 µM. The CC50 (IGROV1; Homo sapiens, IGROV-1, 48 h, read-out: LC50, IGROV1, 48 h) was 6.57 µM, the TGI (IGROV1; IGROV1, 48 h) was 3.42 µM and the TGI (EKVX) was 4.80 µM. The GI50 (EKVX; Homo sapiens) was 2.01 µM, the CC50 (EKVX; Homo sapiens, read-out: LC50, EKVX, 48 h) was 13.9 µM and the GI50 (Prostate Cancer) was 1.62 µM. For the same compound, the GI50 (OVCAR-4 [7]) was 2.43 µM, the CC50 (OVCAR-4 [7]; read-out: LC50, OVCAR-4, 48 h) was 26.3 µM and the TGI (HOP-62) was 3.08 µM. For the same compound, the GI50 (HOP-62; Homo sapiens) was 1.35 µM, the GI50 (SNB-75; Homo sapiens) was 0.68 µM and the CC50 (SNB-75; Homo sapiens, read-out: LC50, SNB-75, 48 h) was 4.89 µM. For the same compound, the TGI (SNB-75) was 1.98 µM, the GI50 (Breast cancer; read-out: MG_MID GI50) was 1.22 µM and the CC50 (Breast cancer; read-out: MG_MID LC50) was 24.6 µM. The TGI (PC-3) was 6.52 µM, the GI50 (TK-10) was 2.24 µM and the CC50 (TK-10; read-out: LC50, TK-10, 48 h) was 7.23 µM. The TGI (CCRF-CEM) was 1.81 µM, the GI50 (OVCAR-8) was 1.49 µM and the CC50 (OVCAR-8; read-out: LC50, OVCAR-8, 48 h) was 25.1 µM. The GI50 (SK-MEL-2; Homo sapiens) was 1.52 µM, the CC50 (SK-MEL-2; Homo sapiens, read-out: LC50, SK-MEL-2, 48 h) was 6.02 µM and the TGI (SK-MEL-2) was 3.03 µM. For the same compound, the GI50 (SNB-19; Homo sapiens, SNB-19, 48 h) was 1.64 µM, the CC50 (SNB-19; Homo sapiens, SNB-19, 48 h, read-out: LC50, SNB-19, 48 h) was 5.53 µM and the “growth GP” value (SNB-19; SNB-19, 10 μM, 48 h) was -97.77%. The TGI (SNB-19; SNB-19, 48 h) was 3.01 µM.

Reference: publication PMC12655351, “Synthesis and Anticancer Activity Evaluation of New 5-((5-Nitrofuran-2-yl)allylidene)-2-thioxo-4-thiazolidinones” (Pharmaceuticals, 2025)
